Measurements: the supplement of paper PMC10307832

How the values were obtained:
Assay in all cases: relative viability (nuclei count vs DMSO), 5 days (fraction); higher = more cells survive
Trametinib + AZD7762 = compound: CC(=O)Nc1cccc(-n2c(=O)n(C3CC3)c(=O)c3c(Nc4ccc(I)cc4F)n(C)c(=O)c(C)c32)c1 [Trametinib] + NC(=O)Nc1cc(-c2cccc(F)c2)sc1C(=O)N[C@H]1CCCNC1 [AZD7762] (partner 0.2 µM)
How it was run: (§1)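 For relative viability, nuclei counts in treated wells were divided by those in vehicle wells. Lung cancer cell lines had been pin-tool dosed in 1536-well plates the day after seeding and cultured for 5 days, then fixed and stained in one step (final 0.05% Triton X-100, 1% formaldehyde, 1 ug/ml Hoechst) and imaged at 4×. Doses were one drug alone or a fixed anchor-drug dose plus five library-drug doses (not always all listed) in √10 steps, and values are duplicate-plate medians.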

[1] = compound: CN1C=C(C2=CC=CC=C21)/C=C\3/C4=C(C=CC=N4)NC3=O + Cc1cc(Nc2cc(N3CCN(C)CC3)nc(Sc3ccc(NC(=O)C4CC4)cc3)n2)n[nH]1 [Tozasertib] (partner 0.1 µM)
How it was run: as §1

Trametinib + Palbociclib = compound: CC(=O)Nc1cccc(-n2c(=O)n(C3CC3)c(=O)c3c(Nc4ccc(I)cc4F)n(C)c(=O)c(C)c32)c1 [Trametinib] + CC(=O)c1c(C)c2cnc(Nc3ccc(N4CCNCC4)cn3)nc2n(C2CCCC2)c1=O [Palbociclib] (partner 0.5 µM)
How it was run: as §1

Trametinib + Vorinostat = compound: CC(=O)Nc1cccc(-n2c(=O)n(C3CC3)c(=O)c3c(Nc4ccc(I)cc4F)n(C)c(=O)c(C)c32)c1 [Trametinib] + O=C(CCCCCCC(=O)Nc1ccccc1)NO [Vorinostat] (partner 1 µM)
How it was run: as §1

Cell Line	relative viability (Trametinib + AZD7762; first compound 0.0025 µM)	relative viability (Trametinib + AZD7762; first compound 0.007906 µM)	relative viability (Trametinib + AZD7762; first compound 0.025 µM)	relative viability (Trametinib + AZD7762; first compound 0.07906 µM)	relative viability (Trametinib + AZD7762; first compound 0.25 µM)	relative viability ([1]; first compound 0.02 µM)	relative viability ([1]; first compound 0.06325 µM)	relative viability ([1]; first compound 0.2 µM)	relative viability ([1]; first compound 0.6325 µM)	relative viability ([1]; first compound 2 µM)	relative viability (Trametinib + Palbociclib; first compound 0.0025 µM)	relative viability (Trametinib + Palbociclib; first compound 0.007906 µM)	relative viability (Trametinib + Palbociclib; first compound 0.025 µM)	relative viability (Trametinib + Palbociclib; first compound 0.07906 µM)	relative viability (Trametinib + Palbociclib; first compound 0.25 µM)	relative viability (Trametinib + Vorinostat; first compound 0.0025 µM)	relative viability (Trametinib + Vorinostat; first compound 0.007906 µM)	relative viability (Trametinib + Vorinostat; first compound 0.025 µM)	relative viability (Trametinib + Vorinostat; first compound 0.07906 µM)	relative viability (Trametinib + Vorinostat; first compound 0.25 µM)
201T	0.632	0.607	0.473	0.592	0.557	1	0.96	0.947	0.897	0.781	0.344	0.321	0.284	0.322	0.272	0.945	0.833	0.736	0.732	0.785
A-427	0.662	0.573	0.525	0.373	0.371	0.203	0.207	–	0.201	0.166	0.534	0.511	0.45	0.45	0.372	0.948	0.896	0.723	0.501	0.51
ABC-1	0.801	0.756	0.562	0.555	0.915	0.173	0.18	0.172	0.173	0.183	0.448	0.668	0.357	0.49	0.338	0.798	0.898	0.562	0.613	0.349
BEN	0.703	0.652	0.412	0.525	0.635	0.475	0.445	0.443	0.634	0.761	0.455	0.479	0.455	0.475	0.468	0.62	0.57	0.49	0.57	0.624
CAL-12T	0.642	0.61	0.619	0.536	0.483	0.343	0.255	0.247	0.324	0.206	0.387	0.193	0.179	0.171	0.187	0.728	0.637	0.394	0.41	0.265
COR-L23	–	–	–	–	–	0.21	0.187	0.222	0.162	0.151	0.317	0.246	0.191	0.143	0.14	0.463	0.465	0.529	0.421	0.312
COR-L 105	–	–	–	–	–	0.311	0.311	0.378	0.364	0.36	0.39	0.44	0.421	0.34	0.347	0.715	0.747	0.52	0.484	0.379
ChaGo-K-1	0.909	0.859	0.793	0.781	0.807	0.194	0.221	0.212	0.214	0.201	0.926	0.778	0.912	0.852	0.75	0.659	0.623	0.685	0.731	0.418
EKVX	0.653	0.712	0.583	0.442	0.769	0.297	0.422	0.402	0.355	0.38	0.375	0.401	0.173	0.182	0.182	0.63	0.442	0.365	0.405	0.321
EMC-BAC-2	1.19	1.14	0.994	0.932	0.757	0.315	0.295	0.301	0.281	0.374	0.581	0.555	0.495	0.502	0.357	0.742	0.602	0.448	–	0.326
EPLC-272H	0.223	0.242	0.175	0.17	0.225	0.193	0.276	0.244	–	0.283	0.293	0.303	0.262	0.207	0.239	0.455	0.368	0.233	0.148	0.162
H3255	0.805	0.736	0.8	0.733	0.505	0.739	0.624	0.847	0.638	0.866	0.339	0.356	0.357	0.342	0.365	0.903	0.799	0.509	0.709	0.905
HARA	0.447	0.394	0.365	0.276	0.215	0.0897	0.112	–	0.0723	0.0941	0.236	0.202	0.205	0.192	0.198	0.387	0.403	0.298	0.251	0.154
HCC-15	1.29	1	1.14	0.928	0.407	0.322	0.406	0.493	0.346	0.531	0.704	0.427	0.307	0.232	0.222	0.814	0.549	0.395	0.276	0.275
HCC-44	0.958	1.07	1.2	1.31	1.05	0.918	0.887	–	1.13	0.944	0.974	1.01	1.08	1.03	1.02	1.08	1.06	1.09	0.909	0.808
HCC-78	0.661	0.484	0.393	0.427	0.46	0.386	0.424	–	0.271	0.426	0.452	0.46	0.398	0.457	0.449	0.447	0.377	0.382	0.433	0.414
HCC-366	0.24	0.24	0.323	0.167	0.143	0.09	0.109	0.0765	0.0587	0.0526	0.307	0.287	0.137	0.0839	0.0678	0.354	0.291	0.357	0.356	0.106
HCC-827	0.226	0.17	0.153	0.183	0.161	0.378	0.405	–	0.53	0.395	0.461	0.395	0.423	0.296	0.289	0.903	0.876	0.71	0.677	0.502
HOP-62	0.737	0.461	0.251	0.243	0.211	0.31	0.359	0.412	0.406	0.422	0.505	0.444	0.397	0.231	0.158	0.648	0.467	0.277	0.301	0.106

Cell Line	relative viability (Trametinib + AZD7762; first compound 0.0025 µM)	relative viability (Trametinib + AZD7762; first compound 0.007906 µM)	relative viability (Trametinib + AZD7762; first compound 0.025 µM)	relative viability (Trametinib + AZD7762; first compound 0.07906 µM)	relative viability (Trametinib + AZD7762; first compound 0.25 µM)	relative viability ([1]; first compound 0.02 µM)	relative viability ([1]; first compound 0.06325 µM)	relative viability ([1]; first compound 0.2 µM)	relative viability ([1]; first compound 0.6325 µM)	relative viability ([1]; first compound 2 µM)	relative viability (Trametinib + Palbociclib; first compound 0.0025 µM)	relative viability (Trametinib + Palbociclib; first compound 0.007906 µM)	relative viability (Trametinib + Palbociclib; first compound 0.025 µM)	relative viability (Trametinib + Palbociclib; first compound 0.07906 µM)	relative viability (Trametinib + Palbociclib; first compound 0.25 µM)	relative viability (Trametinib + Vorinostat; first compound 0.0025 µM)	relative viability (Trametinib + Vorinostat; first compound 0.007906 µM)	relative viability (Trametinib + Vorinostat; first compound 0.025 µM)	relative viability (Trametinib + Vorinostat; first compound 0.07906 µM)	relative viability (Trametinib + Vorinostat; first compound 0.25 µM)
IA-LM	–	–	–	–	–	–	–	–	–	–	–	–	–	–	–	0.744	0.604	0.255	0.125	0.12
LC-2-ad	0.732	0.584	0.518	0.403	0.406	0.43	0.435	0.482	0.453	0.492	0.5	0.452	0.461	0.381	0.404	0.648	0.665	0.663	0.547	0.472
LCLC-97TM1	0.352	0.306	0.137	0.161	0.123	0.132	0.196	0.181	0.332	0.252	0.166	0.141	0.15	0.13	0.115	0.722	0.701	0.435	0.225	0.0816
LCLC-103H	0.835	0.69	0.611	0.758	0.644	0.313	0.506	0.475	0.511	0.536	0.484	0.44	0.483	0.468	0.507	0.808	0.636	0.699	0.631	0.588
LK-2	0.347	0.544	0.288	0.259	0.12	–	–	–	0.164	0.152	0.551	0.603	0.704	0.738	0.223	0.346	0.288	0.164	0.344	0.326
LOU-NH91	0.769	0.704	0.704	0.676	0.548	0.567	0.661	0.621	0.688	0.657	0.604	0.524	0.561	0.552	0.453	0.893	0.802	0.766	0.809	0.411
NCI-H520	–	–	–	–	–	0.396	0.47	0.501	0.436	0.415	0.217	0.238	0.199	0.158	0.232	0.868	0.733	0.68	0.691	0.532
NCI-H596	0.942	1.05	0.921	0.756	0.653	0.981	0.878	0.745	0.7	0.918	–	–	–	–	–	0.6	0.555	0.436	0.427	0.263
NCI-H661	–	–	–	–	–	0.344	0.349	0.365	0.4	0.36	0.429	0.404	0.377	0.311	0.348	0.742	0.753	0.782	0.782	0.724
NCI-H1623	–	–	–	–	–	0.384	0.431	0.358	0.384	0.497	–	–	–	–	–	–	–	–	–	–
NCI-H1650	–	–	–	–	–	0.41	0.366	0.454	0.334	0.35	0.34	0.38	0.34	0.357	0.158	0.502	0.625	0.572	0.45	0.288
NCI-H1703	0.141	0.126	0.144	0.101	0.112	–	–	–	–	–	–	–	–	–	–	–	–	–	–	–
NCI-H1792	0.682	0.552	0.24	0.26	0.133	–	–	–	–	–	0.6	0.51	0.49	0.382	0.303	–	–	–	–	–
NCI-H2009	–	–	–	–	–	0.73	0.613	0.741	0.859	0.831	0.138	0.135	0.109	0.135	0.125	0.76	0.634	0.341	0.354	0.336
NCI-H2023	–	–	–	–	–	0.282	0.267	0.352	0.249	0.237	0.348	0.3	0.24	0.196	0.119	0.683	0.477	0.472	0.541	0.136
NCI-H2228	–	–	–	–	–	0.15	0.223	–	–	0.192	0.649	0.595	0.57	0.369	0.235	0.673	0.87	0.766	0.426	0.309
SK-LU-1	–	–	–	–	–	0.23	0.244	0.316	0.287	0.316	0.416	0.319	0.307	0.296	0.259	0.753	0.748	0.657	0.52	0.381
SK-MES-1	–	–	–	–	–	0.945	0.749	0.917	0.874	0.886	0.358	0.357	0.319	0.354	0.26	0.994	0.894	0.744	0.511	0.337
SW 1573	–	–	–	–	–	0.161	0.209	0.19	0.156	0.193	0.36	0.301	0.298	0.158	0.17	0.755	0.663	0.437	0.491	0.278
